Experiments:
[1] = Cytotoxicity against VeroC1008 cells at 6.25 to 50 ug/ml by neutral red uptake assay; assay type: cell-based; details: chlorocebus sabaeus, vero
[2] = biological target: Cyclin-dependent kinase 5/CDK5 activator 1 (Homo sapiens, UniProt Q00535); experiment: Inhibition of human cdk5/p25 by SPA; assay type: protein-complex assay
Chain of Cyclin-dependent kinase 5/CDK5 activator 1 (Q00535 whole entry): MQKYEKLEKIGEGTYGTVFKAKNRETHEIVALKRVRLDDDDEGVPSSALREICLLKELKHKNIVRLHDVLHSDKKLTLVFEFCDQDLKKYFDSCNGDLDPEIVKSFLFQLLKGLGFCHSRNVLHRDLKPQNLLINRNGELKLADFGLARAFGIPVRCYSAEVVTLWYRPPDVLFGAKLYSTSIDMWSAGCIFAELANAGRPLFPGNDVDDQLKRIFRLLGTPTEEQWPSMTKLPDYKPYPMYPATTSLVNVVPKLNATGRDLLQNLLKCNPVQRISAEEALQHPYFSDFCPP
Chain of Cyclin-dependent kinase 5/CDK5 activator 1 (Q15078 whole entry, further chain): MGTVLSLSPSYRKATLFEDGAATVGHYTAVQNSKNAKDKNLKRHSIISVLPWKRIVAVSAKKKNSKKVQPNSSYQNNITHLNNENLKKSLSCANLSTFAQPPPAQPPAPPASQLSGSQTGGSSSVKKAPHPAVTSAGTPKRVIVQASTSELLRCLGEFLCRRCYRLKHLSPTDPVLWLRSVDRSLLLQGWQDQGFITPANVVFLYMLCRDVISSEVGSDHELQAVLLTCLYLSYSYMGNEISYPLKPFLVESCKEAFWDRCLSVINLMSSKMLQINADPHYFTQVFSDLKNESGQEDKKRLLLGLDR

Row | SMILES | Activity [1] | IC50 [2] [nM]
1 | O=C(CCl)NNC(=O)CSc1nnc(Cc2csc(NC(=O)CCl)n2)n1NC(=O)c1ccc(Cl)cc1 | Non-toxic | 224
2 | CC(=O)NNC(=O)CSc1nnc(Cc2csc(NC(=O)CCl)n2)n1NC(=O)c1ccc(Cl)cc1 | Non-toxic | 464
3 | COC(=O)CSc1nnc(Cc2csc(NC(=O)CCl)n2)n1NC(C)=O | Non-toxic | 695
4 | Nn1c(S)nnc1Cc1csc(NCCC(=O)O)n1 | Non-toxic | 264
5 | O=C(CCl)NNC(=O)CSc1nnc(Cc2csc(NC(=O)CCl)n2)n1NC(=O)c1ccccc1 | Non-toxic | 530
6 | CC(=O)Nc1nc(Cc2nnc(SCSc3nnc(Cc4csc(NC(C)=O)n4)n3NC(=O)c3ccccc3)n2NC(=O)c2ccccc2)cs1 | Non-toxic | 647
7 | N#CCSc1nnc(Cc2csc(NC(=O)CCl)n2)n1NC(=O)c1ccccc1 | Non-toxic | 657
8 | CC(=O)NNC(=O)CSc1nnc(Cc2csc(NC(=O)c3ccccc3)n2)n1NC(=O)c1ccccc1 | Non-toxic | 564
9 | CC(=O)Nn1c(Cc2csc(NC(=O)CCl)n2)nnc1SCC(=O)N/N=C/c1ccccc1 | Non-toxic | 536
10 | CC(=O)Nc1nc(Cc2nnc(SCC(=O)NNC(=O)c3ccccc3)n2NC(=O)c2ccc(Cl)cc2)cs1 | Non-toxic | 534
11 | O=C(O)CCNc1nc(Cc2nnc(SCC(=O)NNC(=O)c3ccccc3)n2NC(=O)c2ccccc2)cs1 | Non-toxic | 432
12 | CC(=O)Nn1c(Cc2csc(NCCC(=O)O)n2)nnc1SCC#N | Non-toxic | 641
13 | CC(=O)Nn1c(Cc2csc(NC(=O)c3ccccc3)n2)nnc1SCC(=O)N/N=C/c1ccccc1 | Non-toxic | 467
14 | O=C(O)CCNc1nc(Cc2nnc(S)n2NC(=O)c2ccccc2)cs1 | Non-toxic | 674
15 | CC(=O)Nn1c(Cc2csc(NCCC(=O)O)n2)nnc1SCC(=O)NN | Non-toxic | 943
16 | CC(=O)NNC(=O)CSc1nnc(Cc2csc(NC(=O)c3ccccc3)n2)n1NC(C)=O | Non-toxic | 643
17 | O=C(CSc1nnc(Cc2csc(NC(=O)c3ccccc3)n2)n1NC(=O)c1ccccc1)NNC(=O)c1ccccc1 | Non-toxic | 463
18 | CC(=O)Nc1nc(Cc2n[nH]c(=S)n2NC(C)=O)cs1 | Non-toxic | 598
19 | CC(=O)NNC(=O)CSc1nnc(Cc2csc(NC(C)=O)n2)n1NC(C)=O | Non-toxic | 384
20 | CC(=O)Nn1c(Cc2csc(NCCC(=O)O)n2)nnc1SCC(=O)NNC(=O)CCl | Non-toxic | 264

Row | SMILES | Activity [1] | IC50 [2] [nM]
21 | CC(=O)NNC(=O)CSc1nnc(Cc2csc(NCCC(=O)O)n2)n1NC(C)=O | Non-toxic | 463
22 | CC(=O)Nn1c(Cc2csc(NC(=O)CCl)n2)nnc1SCSc1nnc(Cc2csc(NC(=O)CCl)n2)n1NC(C)=O | Non-toxic | 847
23 | CC(=O)Nn1c(Cc2csc(NC(=O)c3ccccc3)n2)nnc1SCSc1nnc(Cc2csc(NC(=O)c3ccccc3)n2)n1NC(C)=O | Non-toxic | 764
24 | O=C(CSc1nnc(Cc2csc(NC(=O)CCl)n2)n1NC(=O)c1ccccc1)N/N=C/c1ccccc1 | Non-toxic | 467
25 | O=C(CCl)Nc1nc(Cc2nnc(SCSc3nnc(Cc4csc(NC(=O)CCl)n4)n3NC(=O)c3ccccc3)n2NC(=O)c2ccccc2)cs1 | Non-toxic | 674
26 | NNC(=O)CSc1nnc(Cc2csc(NC(=O)c3ccccc3)n2)n1NC(=O)c1ccccc1 | Non-toxic | 268
27 | COC(=O)CSc1nnc(Cc2csc(NC(=O)c3ccccc3)n2)n1NC(C)=O | Non-toxic | 598
28 | CC(=O)NNC(=O)CSc1nnc(Cc2csc(NCCC(=O)O)n2)n1NC(=O)c1ccc(Cl)cc1 | Non-toxic | 352
29 | CC(=O)Nn1c(Cc2csc(NC(=O)c3ccccc3)n2)nnc1SCc1nnc(S)n1N | Non-toxic | 6340
30 | CC(=O)Nn1c(Cc2csc(NCCC(=O)O)n2)nnc1SCC(=O)NNC(=O)c1ccccc1 | Non-toxic | 476
31 | COC(=O)CSc1nnc(Cc2csc(NC(C)=O)n2)n1NC(C)=O | Non-toxic | 467
32 | CC(=O)Nc1nc(Cc2nnc(SCc3nnc(S)n3N)n2NC(C)=O)cs1 | Non-toxic | 5250
33 | O=C(CCl)Nc1nc(Cc2nnc(SCSc3nnc(Cc4csc(NC(=O)CCl)n4)n3NC(=O)c3ccc(Cl)cc3)n2NC(=O)c2ccc(Cl)cc2)cs1 | Non-toxic | 340
34 | O=C(Nc1nc(Cc2nnc(S)n2NC(=O)c2ccc(Cl)cc2)cs1)c1ccccc1 | Non-toxic | 186
35 | O=C(CSc1nnc(Cc2csc(NC(=O)c3ccccc3)n2)n1NC(=O)c1ccc(Cl)cc1)N/N=C/c1ccccc1 | Non-toxic | 246
36 | COC(=O)CSc1nnc(Cc2csc(NCCC(=O)O)n2)n1NC(=O)c1ccc(Cl)cc1 | Non-toxic | 560
37 | Nn1c(CSc2nnc(Cc3csc(NCCC(=O)O)n3)n2NC(=O)c2ccccc2)n[nH]c1=S | Non-toxic | 4780
38 | O=C(O)CCNc1nc(Cc2n[nH]c(=S)n2NC(=O)c2ccc(Cl)cc2)cs1 | Non-toxic | 462
39 | CC(=O)Nc1nc(Cc2nnc(SCC(=O)NNC(=O)c3ccccc3)n2NC(C)=O)cs1 | Non-toxic | 436
40 | CC(=O)Nn1c(Cc2csc(NC(=O)CCl)n2)nnc1SCC#N | Non-toxic | 415

Row | SMILES | Activity [1] | IC50 [2] [nM]
41 | N#CCSc1nnc(Cc2csc(NC(=O)CCl)n2)n1NC(=O)c1ccc(Cl)cc1 | Non-toxic | 562
42 | CC(=O)NNC(=O)CSc1nnc(Cc2csc(NC(=O)c3ccccc3)n2)n1NC(=O)c1ccc(Cl)cc1 | Non-toxic | 340
43 | O=C(O)CCNc1nc(Cc2nnc(SCC(=O)NNC(=O)c3ccccc3)n2NC(=O)c2ccc(Cl)cc2)cs1 | Non-toxic | 268
44 | CC(=O)Nc1nc(Cc2nnc(SCC#N)n2NC(C)=O)cs1 | Non-toxic | 463
45 | O=C(CSc1nnc(Cc2csc(NC(=O)CCl)n2)n1NC(=O)c1ccc(Cl)cc1)NNC(=O)c1ccccc1 | Non-toxic | 640
46 | CC(=O)Nn1c(Cc2csc(NCCC(=O)O)n2)nnc1SCc1nnc(S)n1N | Non-toxic | 6410
47 | COC(=O)CSc1nnc(Cc2csc(NC(C)=O)n2)n1NC(=O)c1ccccc1 | Non-toxic | 587
48 | Nn1c(CSc2nnc(Cc3csc(NC(=O)c4ccccc4)n3)n2NC(=O)c2ccc(Cl)cc2)n[nH]c1=S | Non-toxic | 3180
49 | O=C(CCl)NNC(=O)CSc1nnc(Cc2csc(NC(=O)c3ccccc3)n2)n1NC(=O)c1ccccc1 | Non-toxic | 542
50 | Nn1c(S)nnc1Cc1csc(NC(=O)CCl)n1 | Non-toxic | 390
51 | CC(=O)Nc1nc(Cc2nnc(SCC(=O)NNC(=O)CCl)n2NC(=O)c2ccc(Cl)cc2)cs1 | Non-toxic | 260
52 | O=C(CSc1nnc(Cc2csc(NC(=O)c3ccccc3)n2)n1NC(=O)c1ccccc1)N/N=C/c1ccccc1 | Non-toxic | 496
53 | CC(=O)Nn1c(Cc2csc(NC(=O)c3ccccc3)n2)nnc1SCC(=O)NNC(=O)c1ccccc1 | Non-toxic | 413
54 | CC(=O)Nn1c(S)nnc1Cc1csc(NC(=O)CCl)n1 | Non-toxic | 684
55 | CC(=O)Nc1nc(Cc2nnc(S)n2NC(=O)c2ccc(Cl)cc2)cs1 | Non-toxic | 462
56 | CC(=O)Nn1c(Cc2csc(NC(=O)c3ccccc3)n2)nnc1SCC#N | Non-toxic | 574
57 | CC(=O)Nc1nc(Cc2nnc(SCC(=O)NNC(=O)CCl)n2NC(=O)c2ccccc2)cs1 | Non-toxic | 643
58 | CC(=O)Nc1nc(Cc2nnc(SCC(=O)NN)n2NC(=O)c2ccccc2)cs1 | Non-toxic | 197
59 | COC(=O)CSc1nnc(Cc2csc(NC(=O)c3ccccc3)n2)n1NC(=O)c1ccccc1 | Non-toxic | 364
60 | O=C(O)CCNc1nc(Cc2nnc(SCSc3nnc(Cc4csc(NCCC(=O)O)n4)n3NC(=O)c3ccc(Cl)cc3)n2NC(=O)c2ccc(Cl)cc2)cs1 | Non-toxic | 168

Source: ChEMBL document CHEMBL1147182, “Clubbed thiazoles by MAOS: a novel approach to cyclin-dependent kinase 5/p25 inhibitors as a potential treatment for Alzheimer's disease” (Bioorg Med Chem, 2007)
